Reference: PubChem BioAssay AID1421 (Emory University Molecular Libraries Screening Center, 2008)
Calls of active or inactive are those of the source. How the calls were made is not given here.

molecular target: Prostaglandin E2 receptor EP2 subtype (Homo sapiens) (UniProt P43116); test: compounds shifting PGE2 potency at EP2 – cell-based, human EP2, PGE2 EC50 shift, dose response (AID 1421); details: EP2-expressing cells, PGE2 EC50 shift by compound
Sequence (P43116 whole entry, looked up): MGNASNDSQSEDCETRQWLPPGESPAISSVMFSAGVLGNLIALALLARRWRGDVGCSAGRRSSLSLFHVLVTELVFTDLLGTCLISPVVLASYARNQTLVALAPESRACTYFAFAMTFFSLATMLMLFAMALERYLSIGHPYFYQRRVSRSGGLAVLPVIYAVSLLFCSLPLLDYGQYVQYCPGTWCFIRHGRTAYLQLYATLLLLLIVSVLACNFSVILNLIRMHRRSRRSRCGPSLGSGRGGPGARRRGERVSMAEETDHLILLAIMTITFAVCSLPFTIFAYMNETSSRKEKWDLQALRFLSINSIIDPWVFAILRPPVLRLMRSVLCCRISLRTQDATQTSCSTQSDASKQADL

| Compound | outcome |
| --- | --- |
| CC(C)(C)C1CCC(=NNc2ccc(S(N)(=O)=O)cc2[N+](=O)[O-])CC1 (configuration not stated) | active |
| CC(C)CCNC(=O)c1c(N)n(CC2CCCO2)c2nc3ccccc3nc12 (configuration not stated) | active |
| C/C(=N\O)C(=O)OC1CC(C)CCC1C(C)C (configuration not stated) | active |
| OC(Cc1ccccc1)(Cc1ccccc1)c1ccccc1 | active |
| Cc1ccccc1CN(C)CC(=O)Nc1ccccc1Oc1ccccc1 | active |
| O=C(Nc1cc(C(F)(F)F)ccc1-n1cncn1)c1ccc(-c2ccccc2)cc1 | active |
| CC(C)CCn1c(=O)c2ccccc2c2ccccc2c1=O | active |
| C/C(=N\NC(=O)NC1CCCCC1)C1CCCCC1 | active |
| Cc1ccc(CSc2ncnc3c2cnn3Cc2ccccc2)cc1C | active |
| Cc1nc2c(c(C)nn2-c2ccccc2)c(C)c1Cl | active |
| N#Cc1cn(-c2ccccc2)nc1-c1cc2ccccc2oc1=O | active |
| COc1ccc(-c2cc(-c3ccccc3)nc(N3CCCC3)n2)cc1OC | active |
| CCCOc1ccc(Cl)cc1CNc1ccccc1 | active |

same assay, conditions: EP2-expressing cells, PGE2 EC50 shift by compound; measured here: PGE2 EC50 at 6.7 uM compound

| Compound | PGE2 EC50 with compound [nM] |
| --- | --- |
| Cc1cccc(Cn2c(N3CCN(c4ccccc4)CC3)nc3c2c(=O)n(C)c(=O)n3C)c1 | 0.94 |
| N#CCSc1nc2c(c(C3CC=CCC3)c1C#N)CCC2 (configuration not stated) | 1.45 |
| CC1(C)OC(c2ccccc2)=C/C(=C/C=Nc2ccccc2)O1 | 0.99 |
| CC1(C)Cc2ccccc2-c2nc3n(c(=O)c21)CCS3 | 0.79 |
| Cc1ccc(Cl)cc1NC(=S)N(Cc1ccco1)C(C)c1cccs1 (configuration not stated) | 1.51 |
| CCCCOc1ccccc1C1C(C(=O)OC)=C(C)N(C)C(C)=C1C(=O)OC | 0.69 |
| CCOC(=O)c1ccccc1NC(=O)CSc1ncc(C(=O)OCC)c(N)n1 | 0.96 |
| N#Cc1c(-c2cccs2)nc(SCc2ccc(Cl)cc2)[nH]c1=O | 2.85 |
| Cc1ccc(/C=C/c2nc3ccccc3c(=O)n2CCc2ccccc2)cc1 | 1.15 |
| CC(C)C1(C)N=C(c2ncccc2C(=O)O)NC1=O (configuration not stated) | 2.52 |
| Cc1ccccc1-n1c(SCC(=O)N2CCCC2)nnc1-c1ccccn1 | 1.28 |
| CC(=O)N1N=C2/C(=C/c3ccccc3)CCCC2C1c1ccccc1 (configuration not stated) | 1.25 |
| CC(C)(C)C1CCC(=NNc2ccc(S(N)(=O)=O)cc2[N+](=O)[O-])CC1 (configuration not stated) | 1.01 |
| Cn1c(=O)c2c(nc(SCC(=O)N3CCc4ccccc4C3)n2C)n(C)c1=O | 1.51 |
| CC(C)CCNC(=O)c1c(N)n(CC2CCCO2)c2nc3ccccc3nc12 (configuration not stated) | 0.95 |
| C[C@H]1CC[C@@H](C(C)(C)O)CC2=C1CC[C@@H]2C | 1.06 |
| O=C1N2c3ccccc3CCc3cccc(c32)C1(O)C(F)(F)F (configuration not stated) | 0.81 |
| O=C(O)c1nc2nc(Cl)c(Cl)nc2[nH]1 | 1.28 |
| CC(C)c1ccc(/C=N/Nc2cc(N3CCOCC3)nc(N3CCOCC3)n2)cc1 | 0.98 |
| CCCCc1nc2sc3c(SCC(=O)NCc4ccco4)ncnc3c2c2c1CCC2 | 2.5 |
| CCOP(=O)(OCC)c1nc(-c2cccc3ccccc23)oc1NCCc1ccc(OC)cc1 | 0.96 |
| Cc1ccc(-n2c(SCC(N)=O)nc3c(c2=O)C2(CCCC2)Cc2ccccc2-3)cc1 | 2.78 |
| Cc1cnn(-c2nc(-c3ccccc3)cc(-c3ccccc3)n2)c1 | 0.95 |
| O=C(CNCC1CCCCC1)Nc1ccccc1N1CCCCC1 | 0.81 |
| CCOc1ccc(-c2nn3c(-c4ccccc4)nnc3s2)cc1 | 1.04 |
| CSc1nc(Sc2ccccc2Cl)c2ccccc2n1 | 0.7 |

| Compound | PGE2 EC50 with compound [nM] |
| --- | --- |
| CC(C)(C)C1CCc2onc(C(=O)Nc3cccnc3)c2C1 (configuration not stated) | 1.31 |
| CNC[C@H](O)c1ccc(O)c(O)c1 | 0.65 |
| O=C(CSc1nc(Cc2ccccc2)nc2ccccc12)c1ccc2c(c1)OCCO2 | 1.23 |
| CC[C@@H]1Cc2cc(O)ccc2C2=C1c1ccc(O)cc1C[C@H]2CC | 0.3 |
| COc1ccc(Cc2n[nH]c(=S)n2Cc2ccccc2)cc1Cl | 1.41 |
| CCOC(=O)CSc1nnc2n(C3CCCCC3)c(=O)c3c4c(sc3n12)CCCC4 | 1.13 |
| CC1(C)C=Cc2c(c3c(c4c(=O)c(-c5ccc(O)cc5)coc24)OC(C)(C)CC3)O1 | 1.11 |
| Cc1sc2ncnc(N(C)Cc3cccs3)c2c1C | 2.57 |
| Cc1noc(C)c1CSc1ncnc2sc3c(c12)CCC(C)C3 (configuration not stated) | 1.06 |
| C=CCc1cccc(/C=N/c2nc3ccccc3n2CC)c1O | 0.63 |
| COc1ccc(-n2c(-c3cccc(OC)c3)nc(=S)c3c2CCCC3)cc1 | 2.89 |
| CCCC1=C(C(=O)OCC)C(c2cccs2)C(C#N)=C(N)O1 (configuration not stated) | 0.82 |
| FC(F)(F)c1cc(CO[C@H]2CCCN[C@H]2c2ccccc2)cc(C(F)(F)F)c1 | 1.59 |
| Cc1ccccc1NC(=S)N(Cc1ccco1)C(C)c1cccs1 (configuration not stated) | 1.68 |
| COC(=O)c1ccccc1NC(=O)C(C)Oc1ccccc1 (configuration not stated) | 0.9 |
| O=C(c1cccs1)N1N=C(c2ccccc2)CC1c1ccc(O)cc1 (configuration not stated) | 0.83 |
| Cn1c(=O)[nH]c(=O)c2c1nc(CN1CCN(c3cccc(Cl)c3)CC1)n2Cc1ccccc1Cl | 0.94 |
| Cc1ccccc1NC(=O)CSc1nc(COc2ccccc2)nc2ccccc12 | 1.24 |
| C/C(=N\O)C(=O)OC1CC(C)CCC1C(C)C (configuration not stated) | 0.88 |
| O=c1c2ccccc2c(-c2ccccc2)nn1-c1ccc(Cl)c(Cl)c1 | 1.42 |
| CC1(c2cc([N+](=O)[O-])cc([N+](=O)[O-])c2)CC(C)(C)N(C(=O)c2ccccc2)c2ccccc21 (configuration not stated) | 1.32 |
| O=C(O)c1csc(N/N=C/c2ccc(Br)cc2)n1 | 0.89 |
| CCN(CC)S(=O)(=O)c1c(OC)cc(C)c(Cl)c1C | 2.56 |
| Cc1ccc2nc(N3CCC(C(=O)O)CC3)nc(-c3ccccc3)c2c1 | 1.19 |
| CSc1nnc(-c2cc3c(s2)-c2ccccc2CC3)o1 | 1.15 |
| OCCCNc1nc(-c2ccc(Cl)cc2)nnc1-c1ccc(Br)cc1 | 1.11 |

| Compound | PGE2 EC50 with compound [nM] |
| --- | --- |
| CN(C)Cc1ccccc1Sc1cccc2ccccc12 | 1.07 |
| Cc1ccc(-n2cc(-c3ccccc3)c3c(N4CCOCC4)ncnc32)cc1 | 1.99 |
| COc1ccc(-c2nnc3ccc(SCC(=O)Nc4nc5ccccc5s4)nn23)cc1OC | 0.67 |
| CCN=C1S/C(=C\c2ccc(O)c(OCC)c2)C(=O)N1CC | 0.81 |
| CCCn1cnc2sc(CC)cc2c1=O | 1.25 |
| Cc1ccc(Nc2cc(C)nc3c(C)ccc([N+](=O)[O-])c23)cc1 | 0.73 |
| COc1cc(C)c(NC(c2ccccc2)c2ccccc2)cc1OC | 1.5 |
| COc1ccc(C(=O)/C(=C/O)N=Nc2ccc(F)cc2)cc1 | 1 |
| CCC(c1nnnn1Cc1ccco1)N(Cc1cc2cc(C)cc(C)c2[nH]c1=O)CC1CCCO1 (configuration not stated) | 1.56 |
| Cc1cccc(NC(=O)CSc2ncnc3c2oc2ccccc23)c1 | 2.85 |
| OC(Cc1ccccc1)(Cc1ccccc1)c1ccccc1 | 1.02 |
| Cc1ccccc1CN(C)CC(=O)Nc1ccccc1Oc1ccccc1 | 1.12 |
| c1ccc(-c2cc(-c3ccncc3)nc3ccc4ccccc4c23)cc1 | 0.69 |
| Nc1c(C(=O)NCc2ccccc2)c2nc3ccccc3nc2n1CCCN1CCOCC1 | 1.09 |
| COc1ccc(C2=NN(C(=O)c3cccs3)C(c3ccccc3O)C2)cc1 (configuration not stated) | 0.51 |
| CSc1nc(NCc2ccco2)c2ccccc2n1 | 1.3 |
| CCOC(=O)Nc1sc2c(c1C(=O)OCC)CCC2 | 0.84 |
| C/C=C(\C)c1nnc(NC(=O)OCC)s1 | 2.65 |
| CCC1Oc2ccc(C)cc2N(Cc2cccc(C)c2)C1=O (configuration not stated) | 1.24 |
| CCC(=O)O[C@H]1CCC2C3CCC4=CC(=O)CC[C@]4(C)C3CC[C@@]21C (some centres not stated) | 0.76 |
| Cc1ccc(C2CC2c2n[nH]c(=S)n2-c2ccc(Cl)cc2)cc1 (configuration not stated) | 1.23 |
| CCOC(=O)C(C)Sc1ncc(OC)c(Sc2ccc(Cl)cc2)n1 (configuration not stated) | 0.67 |
| C=CCn1c(=S)[nH]c2sccc2c1=O | 1.53 |
| O=C(Nc1cc(C(F)(F)F)ccc1-n1cncn1)c1ccc(-c2ccccc2)cc1 | 1.15 |
| CC(C)CCn1c(=O)c2ccccc2c2ccccc2c1=O | 1.07 |
| C/C(=N\NC(=O)NC1CCCCC1)C1CCCCC1 | 1.79 |

| Compound | PGE2 EC50 with compound [nM] |
| --- | --- |
| Cc1ccc(CSc2ncnc3c2cnn3Cc2ccccc2)cc1C | 1.08 |
| O=C1C2C(c3ccccc3)C=CC(c3ccccc3)C2C(=O)N1c1ccncc1 (configuration not stated) | 0.65 |
| CC(=O)c1ccc(S(=O)(=O)NCCCC(=O)NCCc2ccccn2)cc1 | 1.15 |
| Cc1ccc(S(=O)(=O)c2ccc(Oc3cccc(C)c3)cc2)cc1 | 1.41 |
| CC1CN(c2nc3ccccc3cc2-c2ccccc2)CC(C)O1 (configuration not stated) | 0.53 |
| Cc1ccc2c(c1)-c1nc3ccccc3cc1C2=NC1CCCCC1 | 1.41 |
| Nc1ccc(Cl)cc1C(=O)c1ccccc1Cl | 1.16 |
| CCOc1ccc2cc(C#N)c(SCC(=O)NC(C)CC)nc2c1 (configuration not stated) | 1.36 |
| Oc1ccc2ccccc2c1Cc1c(O)ccc2ccccc12 | 1.35 |
| O=C(CNC1CCCCC1)N1CCC2(CC1)OCCO2 | 1.35 |
| COc1ccc(-c2noc(-c3ccccc3-c3ccccc3)n2)cc1OC | 0.31 |
| Cc1sc2ncnc(SCc3ccco3)c2c1C | 1.33 |
| Clc1ccc(-c2ccc(/C=N/Nc3cc(N4CCOCC4)nc(N4CCOCC4)n3)o2)cc1 | 2.85 |
| Cc1nc2c(c(C)nn2-c2ccccc2)c(C)c1Cl | 0.69 |
| CCCCNc1nc2c(S(=O)(=O)c3ccccc3)nnn2c2ccccc12 | 1.17 |
| CCN(CCO)c1ncnc2c1sc1nc(C(C)C)c3c(c12)CC(C)(C)OC3 | 0.69 |
| COc1ccc(-n2c(CCc3ccccc3)nnc2SCC(=O)c2ccccc2)cc1 | 1.57 |
| Cc1cc(C)cc(OC2CCCCC2NS(=O)(=O)c2ccccc2)c1 (configuration not stated) | 1.62 |
| O=[N+]([O-])c1ccc(Cl)c2c1C1C=CCC1C(c1ccccn1)N2 (configuration not stated) | 0.69 |
| O=C(c1ccco1)N(Cc1cccc([N+](=O)[O-])c1)c1ccc(Br)cc1 | 1.01 |
| Cc1cc2ccc(C)c(C)c2nc1SCC#N | 1.18 |
| N#Cc1cn(-c2ccccc2)nc1-c1cc2ccccc2oc1=O | 0.99 |
| Cn1c(=O)c2c(ncn2CCSS(=O)(=O)O)n(C)c1=O | 0.97 |
| COc1ccc(-c2cc(-c3ccccc3)nc(N3CCCC3)n2)cc1OC | 1.12 |
| Fc1ccccc1Nc1nc2c(s1)CCc1ccccc1-2 | 1.03 |
| CCCOc1ccc(Cl)cc1CNc1ccccc1 | 1.22 |
